These are literature values, as cited in US20060251704A1, “Methods and devices for efficacious treatment of aphthous ulcers” (priority 2005, published 2006).

This data set concerns aphthous ulcers (RAS). The conditions noted are these: by the 6th day.

As to `CC(C)c1ccc2oc3nc(N)c(C(=O)O)cc3c(=O)c2c1` [amlexanox], the “patients with healed ulcers” value (vehicle control 54.7%) is reported as 65.6%. The patients pain free (patients with RAS, control group 72.8%) is recorded as 82.8%.
